This note sets out measurements from ChEMBL document CHEMBL1201862, “PubChem BioAssay data set” (2004).

Active and inactive are the calls of the source. A value given as a limit tells only on which side of the number the result lay.

Assay [1] deals with T1, Sentrin-specific protease 7 (Homo sapiens, UniProt Q9BQF6).
T1 sequence (Q9BQF6 whole entry): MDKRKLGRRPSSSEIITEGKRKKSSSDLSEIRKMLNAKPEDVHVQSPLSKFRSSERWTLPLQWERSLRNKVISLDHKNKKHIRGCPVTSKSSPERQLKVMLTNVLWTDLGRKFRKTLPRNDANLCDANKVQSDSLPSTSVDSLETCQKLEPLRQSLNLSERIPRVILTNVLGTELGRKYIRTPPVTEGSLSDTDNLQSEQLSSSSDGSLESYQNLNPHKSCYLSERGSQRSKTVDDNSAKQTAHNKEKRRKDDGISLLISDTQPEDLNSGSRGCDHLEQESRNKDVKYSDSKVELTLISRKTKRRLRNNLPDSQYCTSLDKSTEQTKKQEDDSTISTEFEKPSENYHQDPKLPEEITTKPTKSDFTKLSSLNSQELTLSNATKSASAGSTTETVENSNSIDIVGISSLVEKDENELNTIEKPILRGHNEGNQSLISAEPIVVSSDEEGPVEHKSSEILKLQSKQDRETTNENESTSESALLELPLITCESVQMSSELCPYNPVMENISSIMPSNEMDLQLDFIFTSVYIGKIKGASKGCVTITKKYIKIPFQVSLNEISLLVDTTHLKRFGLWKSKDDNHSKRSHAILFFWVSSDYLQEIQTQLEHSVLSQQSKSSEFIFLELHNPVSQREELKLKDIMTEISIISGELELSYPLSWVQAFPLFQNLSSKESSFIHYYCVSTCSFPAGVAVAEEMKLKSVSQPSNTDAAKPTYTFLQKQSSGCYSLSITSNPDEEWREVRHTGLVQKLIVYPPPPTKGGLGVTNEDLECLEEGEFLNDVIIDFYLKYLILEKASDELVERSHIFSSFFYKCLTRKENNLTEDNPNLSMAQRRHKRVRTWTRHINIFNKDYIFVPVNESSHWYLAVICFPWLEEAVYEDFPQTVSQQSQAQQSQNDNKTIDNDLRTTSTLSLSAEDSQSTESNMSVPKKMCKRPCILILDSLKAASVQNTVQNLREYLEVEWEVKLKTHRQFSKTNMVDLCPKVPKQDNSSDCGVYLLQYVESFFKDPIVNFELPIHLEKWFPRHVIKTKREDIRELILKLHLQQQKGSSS
The format is functional.

Assay [2] has as its target DNA dC->dU-editing enzyme APOBEC-3A (Homo sapiens, UniProt P31941). The experiment in a line: APOBEC3A DNA deaminase inhibitors, dose response, biochemical (AID 504722). The format is functional.
For the next assay, the target named is T2, Caspase-3 (Homo sapiens, UniProt P42574).
T2 sequence (P42574 whole entry): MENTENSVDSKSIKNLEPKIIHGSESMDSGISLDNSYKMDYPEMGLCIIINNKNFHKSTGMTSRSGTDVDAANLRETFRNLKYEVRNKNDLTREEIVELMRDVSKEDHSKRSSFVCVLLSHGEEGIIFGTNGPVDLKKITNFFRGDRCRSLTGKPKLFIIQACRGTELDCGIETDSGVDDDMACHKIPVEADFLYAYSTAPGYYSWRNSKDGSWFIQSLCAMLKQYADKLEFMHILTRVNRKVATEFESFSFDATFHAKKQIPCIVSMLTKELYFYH
The experiment in a line: Dose-response confirmation of uHTS inhibitor hits of Sentrin-Specific Protease 8 in a Caspase-3 Fluorescence assay. The format is functional.

For assay [3], the target named is High affinity nerve growth factor receptor (Homo sapiens, UniProt P04629). The class given is functional.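 Further: NTRK1 tested as one member of a kinome-wide profiling panel.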
Assay [4] deals with Protein kinase C theta type (Homo sapiens, UniProt Q04759). The experiment in a line: Navigating the Kinome. Panel member name: PRKCQ. The format is functional.
Chain of Protein kinase C theta type (Q04759 whole entry): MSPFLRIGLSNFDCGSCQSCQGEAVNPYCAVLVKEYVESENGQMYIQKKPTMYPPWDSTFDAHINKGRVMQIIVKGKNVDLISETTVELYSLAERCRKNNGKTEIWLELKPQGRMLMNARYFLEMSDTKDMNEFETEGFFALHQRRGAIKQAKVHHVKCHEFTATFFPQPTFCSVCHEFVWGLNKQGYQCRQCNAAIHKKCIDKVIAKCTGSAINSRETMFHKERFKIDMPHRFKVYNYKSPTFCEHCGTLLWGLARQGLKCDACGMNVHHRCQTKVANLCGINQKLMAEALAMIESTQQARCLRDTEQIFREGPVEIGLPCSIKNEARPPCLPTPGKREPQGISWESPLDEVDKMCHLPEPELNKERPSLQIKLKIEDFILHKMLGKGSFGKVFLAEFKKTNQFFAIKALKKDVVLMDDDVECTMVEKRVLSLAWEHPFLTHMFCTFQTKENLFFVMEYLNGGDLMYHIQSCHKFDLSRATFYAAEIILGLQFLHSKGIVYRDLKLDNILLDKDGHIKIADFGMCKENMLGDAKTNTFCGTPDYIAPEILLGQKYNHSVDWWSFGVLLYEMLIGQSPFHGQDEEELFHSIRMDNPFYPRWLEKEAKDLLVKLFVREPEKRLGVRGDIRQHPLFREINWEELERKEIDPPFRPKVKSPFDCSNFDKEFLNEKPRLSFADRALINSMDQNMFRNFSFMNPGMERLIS
Assay [5] deals with Rho-associated protein kinase 1 (Homo sapiens, UniProt Q13464). The format is functional.
The target in assay [6] is Serine/threonine-protein kinase Chk1 (Homo sapiens, UniProt O14757). The format is functional.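 Further: measured as one member of a kinome-wide kinase profiling panel.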
Chain of Serine/threonine-protein kinase Chk1 (O14757 whole entry): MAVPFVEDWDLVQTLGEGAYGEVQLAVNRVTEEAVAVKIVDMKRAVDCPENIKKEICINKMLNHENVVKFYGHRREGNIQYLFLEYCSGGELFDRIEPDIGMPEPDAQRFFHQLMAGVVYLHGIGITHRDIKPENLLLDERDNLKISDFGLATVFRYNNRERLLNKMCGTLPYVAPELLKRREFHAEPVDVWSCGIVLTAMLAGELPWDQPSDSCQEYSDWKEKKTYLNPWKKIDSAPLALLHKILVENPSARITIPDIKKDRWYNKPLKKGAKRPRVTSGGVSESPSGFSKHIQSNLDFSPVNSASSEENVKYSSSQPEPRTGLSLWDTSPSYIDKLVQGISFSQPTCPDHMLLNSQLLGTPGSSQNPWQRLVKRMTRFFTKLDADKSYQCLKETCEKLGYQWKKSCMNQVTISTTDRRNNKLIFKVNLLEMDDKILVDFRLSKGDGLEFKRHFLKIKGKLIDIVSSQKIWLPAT
Assay [7] deals with Cyclin-dependent kinase 5 (Homo sapiens, UniProt Q00535). The class given is functional.
Chain of Cyclin-dependent kinase 5 (Q00535 whole entry): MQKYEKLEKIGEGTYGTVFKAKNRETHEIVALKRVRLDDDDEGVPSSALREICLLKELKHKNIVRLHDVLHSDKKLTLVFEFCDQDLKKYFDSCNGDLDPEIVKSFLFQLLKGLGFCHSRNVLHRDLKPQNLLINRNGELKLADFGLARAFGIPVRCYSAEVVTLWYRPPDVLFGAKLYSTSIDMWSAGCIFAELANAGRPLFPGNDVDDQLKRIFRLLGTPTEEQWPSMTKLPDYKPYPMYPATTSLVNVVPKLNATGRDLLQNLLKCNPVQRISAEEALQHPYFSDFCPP
In assay [8] the target is Serine/threonine-protein kinase TBK1 (Homo sapiens, UniProt Q9UHD2). As to the kind of experiment: Navigating the Kinome. Panel member name: TBK1. The class given is functional.
For assay [9], the target named is Dual specificity tyrosine-phosphorylation-regulated kinase 1B (Homo sapiens, UniProt Q9Y463). The experiment in a line: Navigating the Kinome. Panel member name: DYRK1B. The class given is functional.
Chain of Dual specificity tyrosine-phosphorylation-regulated kinase 1B (Q9Y463 whole entry): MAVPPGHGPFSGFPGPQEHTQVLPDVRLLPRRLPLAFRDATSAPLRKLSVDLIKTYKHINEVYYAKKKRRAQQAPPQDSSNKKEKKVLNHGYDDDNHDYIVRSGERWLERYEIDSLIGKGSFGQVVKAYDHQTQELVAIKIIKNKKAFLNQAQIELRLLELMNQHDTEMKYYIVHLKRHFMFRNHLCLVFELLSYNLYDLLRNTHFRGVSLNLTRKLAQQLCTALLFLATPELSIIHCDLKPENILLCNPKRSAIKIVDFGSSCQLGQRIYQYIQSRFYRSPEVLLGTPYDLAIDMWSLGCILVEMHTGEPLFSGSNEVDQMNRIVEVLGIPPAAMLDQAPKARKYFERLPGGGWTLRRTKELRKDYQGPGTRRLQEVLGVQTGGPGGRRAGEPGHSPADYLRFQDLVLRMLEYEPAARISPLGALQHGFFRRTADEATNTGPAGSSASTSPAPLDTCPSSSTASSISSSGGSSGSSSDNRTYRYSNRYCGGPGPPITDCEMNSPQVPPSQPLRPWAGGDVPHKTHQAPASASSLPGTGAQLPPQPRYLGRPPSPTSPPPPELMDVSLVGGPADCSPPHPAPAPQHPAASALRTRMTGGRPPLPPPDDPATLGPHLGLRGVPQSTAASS
Assay [10] has as its target Tyrosine-protein kinase JAK2 (Homo sapiens, UniProt O60674). The format is functional.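 Further: JAK2 tested as one member of a kinase panel.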
The next assay addresses Aurora kinase A (Homo sapiens, UniProt O14965). The class given is functional.
Assay [11] deals with Tyrosine-protein kinase Lck (Homo sapiens, UniProt P06239). The class given is functional.
Chain of Tyrosine-protein kinase Lck (P06239 whole entry): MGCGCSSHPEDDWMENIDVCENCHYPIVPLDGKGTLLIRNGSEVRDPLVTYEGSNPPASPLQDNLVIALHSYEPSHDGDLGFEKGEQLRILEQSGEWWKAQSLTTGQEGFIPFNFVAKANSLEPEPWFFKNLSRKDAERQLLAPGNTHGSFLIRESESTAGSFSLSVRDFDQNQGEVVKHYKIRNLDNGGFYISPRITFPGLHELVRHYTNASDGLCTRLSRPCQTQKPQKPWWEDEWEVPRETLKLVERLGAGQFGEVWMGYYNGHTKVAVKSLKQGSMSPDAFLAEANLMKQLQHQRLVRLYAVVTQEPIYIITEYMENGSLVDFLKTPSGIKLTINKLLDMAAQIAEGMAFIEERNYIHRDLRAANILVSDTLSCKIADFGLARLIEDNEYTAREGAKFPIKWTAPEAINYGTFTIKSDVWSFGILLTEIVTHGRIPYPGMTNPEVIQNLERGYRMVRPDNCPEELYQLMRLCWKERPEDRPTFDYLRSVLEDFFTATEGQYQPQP
Assay [12] deals with Platelet-derived growth factor receptor beta (Homo sapiens, UniProt P09619). The class given is functional.
For assay [13], the target named is T3, RNA-binding protein pos-1 (Caenorhabditis elegans, UniProt G5EF15).
T3 sequence (G5EF15 whole entry): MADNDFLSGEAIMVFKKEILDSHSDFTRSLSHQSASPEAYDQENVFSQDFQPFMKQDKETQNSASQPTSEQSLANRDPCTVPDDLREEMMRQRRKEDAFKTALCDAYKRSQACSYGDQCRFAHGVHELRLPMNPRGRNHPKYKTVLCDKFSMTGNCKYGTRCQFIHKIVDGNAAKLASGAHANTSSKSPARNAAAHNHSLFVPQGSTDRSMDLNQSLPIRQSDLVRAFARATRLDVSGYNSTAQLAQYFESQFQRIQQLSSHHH
The experiment in a line: inhibitors of POS-1/mex-3 RNA binding, dose response, biochemical, fluorescence polarization (AID 1964).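 Further: purified POS-1 fused to maltose binding protein made in E. coli; potency of compounds blocking POS-1 binding to fluorescent RNA.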

A further assay addresses Albumin (Bos taurus, UniProt P02769). The experiment in a line: Counterscreen for inhibitors of T-cell receptor (TCR)-CD3 interaction: Fluorescence-based biochemical high throughput dose response assay to identify inhibitors of T-cell receptor (TCR)-CD3 interaction using a TAMRA-labeled BSA probe. The class given is functional.

Chain of Albumin (P02769 whole entry): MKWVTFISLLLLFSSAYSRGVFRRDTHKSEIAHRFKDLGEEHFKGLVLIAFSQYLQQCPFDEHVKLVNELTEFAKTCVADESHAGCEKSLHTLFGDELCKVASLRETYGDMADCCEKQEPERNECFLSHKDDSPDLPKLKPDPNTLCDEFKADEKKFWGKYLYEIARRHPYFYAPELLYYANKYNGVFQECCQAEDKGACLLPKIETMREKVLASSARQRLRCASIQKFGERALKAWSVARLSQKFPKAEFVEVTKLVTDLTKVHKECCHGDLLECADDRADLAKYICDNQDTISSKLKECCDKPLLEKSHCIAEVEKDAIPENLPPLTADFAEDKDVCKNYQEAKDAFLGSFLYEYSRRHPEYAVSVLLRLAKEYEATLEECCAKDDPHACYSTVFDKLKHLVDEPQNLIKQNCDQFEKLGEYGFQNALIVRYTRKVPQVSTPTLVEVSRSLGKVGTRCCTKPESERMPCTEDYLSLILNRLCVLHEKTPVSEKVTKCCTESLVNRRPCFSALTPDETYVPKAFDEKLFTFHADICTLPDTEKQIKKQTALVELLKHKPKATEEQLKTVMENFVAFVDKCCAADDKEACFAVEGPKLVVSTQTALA
Chain of Tyrosine-protein kinase JAK2 (O60674 whole entry): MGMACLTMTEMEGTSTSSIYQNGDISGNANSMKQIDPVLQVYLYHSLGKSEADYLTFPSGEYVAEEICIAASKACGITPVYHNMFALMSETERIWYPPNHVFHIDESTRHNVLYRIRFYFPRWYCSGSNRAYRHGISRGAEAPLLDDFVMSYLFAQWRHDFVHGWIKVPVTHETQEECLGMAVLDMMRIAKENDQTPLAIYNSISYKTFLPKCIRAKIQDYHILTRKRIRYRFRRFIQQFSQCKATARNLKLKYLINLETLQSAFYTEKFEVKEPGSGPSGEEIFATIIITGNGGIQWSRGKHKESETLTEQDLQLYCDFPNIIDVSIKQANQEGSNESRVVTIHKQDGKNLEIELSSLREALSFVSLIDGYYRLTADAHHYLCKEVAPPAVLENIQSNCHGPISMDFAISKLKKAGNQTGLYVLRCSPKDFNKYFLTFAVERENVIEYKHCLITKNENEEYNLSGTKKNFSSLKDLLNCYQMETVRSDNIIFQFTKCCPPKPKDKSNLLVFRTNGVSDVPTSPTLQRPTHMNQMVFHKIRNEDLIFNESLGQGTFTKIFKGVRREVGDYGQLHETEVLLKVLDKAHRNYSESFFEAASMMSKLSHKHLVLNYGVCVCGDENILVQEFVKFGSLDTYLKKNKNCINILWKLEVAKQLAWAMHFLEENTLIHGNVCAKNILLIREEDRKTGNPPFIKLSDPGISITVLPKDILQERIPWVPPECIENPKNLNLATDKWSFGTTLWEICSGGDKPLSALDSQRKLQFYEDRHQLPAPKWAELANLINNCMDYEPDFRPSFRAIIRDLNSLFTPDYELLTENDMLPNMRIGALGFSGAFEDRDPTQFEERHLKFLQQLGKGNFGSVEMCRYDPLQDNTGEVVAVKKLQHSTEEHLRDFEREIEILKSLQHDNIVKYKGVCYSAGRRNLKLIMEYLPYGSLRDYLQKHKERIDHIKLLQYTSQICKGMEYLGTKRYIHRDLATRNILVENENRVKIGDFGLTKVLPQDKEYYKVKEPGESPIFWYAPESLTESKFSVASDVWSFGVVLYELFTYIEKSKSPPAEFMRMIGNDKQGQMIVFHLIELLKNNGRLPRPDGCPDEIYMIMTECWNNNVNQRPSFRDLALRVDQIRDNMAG
Chain of DNA dC->dU-editing enzyme APOBEC-3A (P31941 whole entry): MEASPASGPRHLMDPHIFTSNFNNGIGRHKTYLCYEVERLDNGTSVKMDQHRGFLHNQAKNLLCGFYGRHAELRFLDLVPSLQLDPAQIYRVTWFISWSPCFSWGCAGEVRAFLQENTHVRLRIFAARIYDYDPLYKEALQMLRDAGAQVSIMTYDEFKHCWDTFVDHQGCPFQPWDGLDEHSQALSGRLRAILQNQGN
Chain of Aurora kinase A (O14965 whole entry): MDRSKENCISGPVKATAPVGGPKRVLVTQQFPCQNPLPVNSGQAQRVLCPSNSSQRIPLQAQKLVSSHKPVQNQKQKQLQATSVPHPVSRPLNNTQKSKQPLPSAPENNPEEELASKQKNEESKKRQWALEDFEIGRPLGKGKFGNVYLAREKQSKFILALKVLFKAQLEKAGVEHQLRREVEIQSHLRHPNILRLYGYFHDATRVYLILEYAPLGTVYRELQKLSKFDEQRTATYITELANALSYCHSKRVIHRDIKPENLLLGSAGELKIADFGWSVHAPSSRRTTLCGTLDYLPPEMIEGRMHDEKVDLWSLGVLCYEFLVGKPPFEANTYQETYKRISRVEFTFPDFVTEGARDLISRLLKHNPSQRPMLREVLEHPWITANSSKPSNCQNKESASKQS

For the compound `CC(=O)N(C1=C(Cl)C(=O)c2ccccc2C1=O)c1ccc(C(=O)O)cc1`, the IC50 in [1] was 8900 nM (active); in assay [2] it was > 100000 nM (inactive).
In the case of `CC1(C)C=C2C(=NN(c3ccccc3)C(N)=C2C#N)CO1`, the IC50 at Caspase-3 is 1090 nM (active).
With `Cc1ccc(-c2cc3nc(Br)cnc3[nH]2)cc1`, the Ki in assay [3] is > 3160 nM (inactive); in assay [4], > 2510 nM (inactive); in [5], > 3980 nM (inactive); in [6] it was > 3160 nM (inactive); in [7], 7.94 nM (active); in [8], > 3160 nM (inactive). Moreover, the Ki in assay [9] was > 2510 nM (inactive); in assay [10], > 2510 nM (inactive); at Aurora kinase A, > 1580 nM (inactive); in assay [11] it was > 6310 nM (inactive); in assay [12] it was > 2000 nM (inactive).
For the compound `O=C1C=C(O)c2c(O)cc(O)c(O)c2C1=O`, the EC50 in assay [13] is 1070 nM (inconclusive). Also, the IC50 at Albumin is > 94100 nM (inactive).

By IC50 is commonly meant the concentration needed to halve the response being measured. Usually Ki stands for the dissociation constant of the complex between target and ligand, obtained from inhibition or displacement. As usually defined, the EC50 is the concentration needed to bring the measured effect to its halfway point.
